22 molecules from ChEMBL document CHEMBL6083291, “Discovery of Thiochroman Derivatives as Potent, Oral Selective Estrogen Receptor Degraders and Antagonists for the Treatment of Endocrine-Resistant Breast Cancer” (J Med Chem, 2024) can be followed below.

The test system of one assay is MCF7. The assay can be described thus: Antiproliferative activity against human MCF7 cells assessed as reduction in cell viability incubated for 6 days by CellTiter-Glo reagent based luminescence analysis. (In ATP-based viability assays light output follows the ATP content of the culture.)
The next assay concerns T47D. The assay can be described thus: Antiproliferative activity against human T47D cells assessed as reduction in cell viability.
For a further assay, the system named is CAMA-1. The assay can be described thus: Antiproliferative activity against human CAMA-1 cells assessed as reduction in cell viability.
For the next assay, the system named is BT-474. The assay can be described thus: Antiproliferative activity against human BT-474 cells assessed as reduction in cell viability.
In another assay the test system is MDA-MB-361. The assay can be described thus: Antiproliferative activity against human MDA-MB-361 cells assessed as reduction in cell viability.
For assay [1], the target named is Voltage-gated inwardly rectifying potassium channel KCNH2 (Homo sapiens, UniProt Q12809). The assay can be described thus: Inhibition of hERG expressed in CHO cells assessed as inhibition of channel current by automated Qpatch clamp analysis.
Sequence of Voltage-gated inwardly rectifying potassium channel KCNH2 (Q12809 whole entry): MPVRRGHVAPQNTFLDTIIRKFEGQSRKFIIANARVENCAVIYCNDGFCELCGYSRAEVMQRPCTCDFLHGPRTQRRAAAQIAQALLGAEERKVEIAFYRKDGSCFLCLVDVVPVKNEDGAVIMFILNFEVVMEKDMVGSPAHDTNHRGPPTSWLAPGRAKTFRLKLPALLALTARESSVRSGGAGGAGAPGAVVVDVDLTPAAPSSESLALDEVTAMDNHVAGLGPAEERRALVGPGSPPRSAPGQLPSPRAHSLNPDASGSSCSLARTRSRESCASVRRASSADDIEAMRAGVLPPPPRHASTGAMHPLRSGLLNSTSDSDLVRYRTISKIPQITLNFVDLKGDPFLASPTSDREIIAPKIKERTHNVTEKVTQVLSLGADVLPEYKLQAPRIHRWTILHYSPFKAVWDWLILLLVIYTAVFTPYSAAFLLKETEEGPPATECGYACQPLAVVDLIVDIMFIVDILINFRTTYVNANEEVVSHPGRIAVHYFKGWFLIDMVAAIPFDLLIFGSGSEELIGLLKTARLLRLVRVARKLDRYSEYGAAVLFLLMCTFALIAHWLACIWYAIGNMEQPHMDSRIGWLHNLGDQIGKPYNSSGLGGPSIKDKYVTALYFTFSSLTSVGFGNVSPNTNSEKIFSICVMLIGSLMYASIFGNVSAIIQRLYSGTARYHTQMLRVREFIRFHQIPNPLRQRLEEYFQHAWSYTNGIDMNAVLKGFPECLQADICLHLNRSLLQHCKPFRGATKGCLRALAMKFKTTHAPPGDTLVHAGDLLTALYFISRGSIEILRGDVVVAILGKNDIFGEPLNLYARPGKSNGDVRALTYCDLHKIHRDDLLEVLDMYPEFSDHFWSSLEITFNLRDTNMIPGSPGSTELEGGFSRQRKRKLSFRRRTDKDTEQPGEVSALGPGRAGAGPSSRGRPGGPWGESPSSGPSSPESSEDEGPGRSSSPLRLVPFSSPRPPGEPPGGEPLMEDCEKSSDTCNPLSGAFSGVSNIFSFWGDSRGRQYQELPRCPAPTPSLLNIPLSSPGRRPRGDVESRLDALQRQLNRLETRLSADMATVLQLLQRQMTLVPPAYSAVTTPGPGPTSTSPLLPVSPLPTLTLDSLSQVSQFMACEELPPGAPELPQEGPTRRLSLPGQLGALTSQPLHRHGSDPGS
Another assay deals with T1, Estrogen receptor (Homo sapiens, UniProt P03372).
T1 sequence (P03372 whole entry): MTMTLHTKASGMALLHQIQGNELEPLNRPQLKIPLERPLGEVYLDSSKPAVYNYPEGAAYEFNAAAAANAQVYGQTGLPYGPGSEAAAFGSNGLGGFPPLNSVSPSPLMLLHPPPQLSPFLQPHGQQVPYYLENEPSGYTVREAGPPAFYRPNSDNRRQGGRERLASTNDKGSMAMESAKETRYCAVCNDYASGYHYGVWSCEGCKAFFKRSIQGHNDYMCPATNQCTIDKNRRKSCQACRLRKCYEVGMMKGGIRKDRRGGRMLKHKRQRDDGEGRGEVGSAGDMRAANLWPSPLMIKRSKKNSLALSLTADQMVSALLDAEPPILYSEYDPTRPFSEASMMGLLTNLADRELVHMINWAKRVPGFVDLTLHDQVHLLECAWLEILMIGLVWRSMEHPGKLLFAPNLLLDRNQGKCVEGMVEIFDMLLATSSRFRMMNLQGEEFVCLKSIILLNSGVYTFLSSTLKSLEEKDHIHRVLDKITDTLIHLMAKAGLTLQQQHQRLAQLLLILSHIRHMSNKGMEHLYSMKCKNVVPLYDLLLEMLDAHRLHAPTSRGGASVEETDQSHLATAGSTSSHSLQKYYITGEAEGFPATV
The assay can be described thus: Induction of ER-alpha degradation in human MCF7 cells incubated for 24 hrs by In-Cell Western blot analysis. Format: cell-based.

Where only a bound is given, the exact number is not on record here.

One may read the IC50 as the point on the concentration scale where inhibition reaches its midpoint. What is called DC50 is the midpoint of the concentration-degradation curve. A high value points to degradation only at high concentration.

On to `Oc1ccc2c(c1)SC[C@H](c1cc(F)c(F)cc1F)[C@@H]2c1ccc(OCCN2CC(CF)C2)cc1`, for which the IC50 in the assay with MCF7 (mcf7) was 0.25 nM; in the assay with T47D it was 4 nM; in the assay on CAMA-1 it was 4 nM; in the assay with BT-474 it was 4 nM; with MDA-MB-361, about 15 nM. For `Oc1ccc2c(c1)SC[C@@H](c1cc(F)c(F)cc1F)[C@H]2c1ccc(OCCN2CC(CF)C2)cc1`, the IC50 with MCF7 (Homo sapiens, MCF7, 144 h) is 714 nM. `Oc1ccc2c(c1)OCC(c1ccc(F)cc1F)=C2c1ccc(OCCN2CC(CF)C2)cc1`: the IC50 in the assay with MCF7 (Homo sapiens, MCF7, 144 h) stood at 58 nM. On to `COc1cc(F)ccc1[C@@H]1CSc2cc(O)ccc2[C@@H]1c1ccc(OCCN2CC(CF)C2)cc1`, for which the 50% inhibitory concentration (IC50) in the assay on MCF7 (Homo sapiens, MCF7, 144 h) turned out to be 25 nM. For `COc1ccc([C@H]2COc3cc(O)ccc3[C@H]2c2ccc(OCCN3CC(CF)C3)cc2)c(F)c1` (racemic), the IC50 in the assay on MCF7 (Homo sapiens, MCF7, 144 h) amounted to 0.87 nM; in assay [1], 3500 nM. Take `Oc1ccc2c(c1)SC[C@H](c1ccc(F)cc1F)[C@@H]2c1ccc(OCCN2CC(CF)C2)cc1` (racemic): the IC50 with MCF7 (Homo sapiens, MCF7, 144 h) was found to be 0.6 nM; in assay [1], 13000 nM. On to `Oc1ccc2c(c1)OC[C@H](C1CCOCC1)[C@@H]2c1ccc(OCCN2CC(CF)C2)cc1` (racemic), for which the IC50 in the assay with MCF7 (Homo sapiens, MCF7, 144 h) was 1.6 nM.

Consider `COc1cc(F)ccc1[C@H]1COc2cc(O)ccc2[C@H]1c1ccc(OCCN2CC(CF)C2)cc1` (racemic), for which the IC50 in the assay with MCF7 (Homo sapiens, MCF7, 144 h) came out at 0.56 nM; in assay [1], 4800 nM. As to `Oc1ccc2c(c1)OC[C@H](c1ccc(F)cc1F)[C@@H]2c1ccc(NC2CN(CCCF)C2)cc1` (racemic), the half-maximal inhibitory concentration (IC50) stood at 3.1 nM in the assay with MCF7 (Homo sapiens, MCF7, 144 h) and 3600 nM in assay [1]. On Estrogen receptor, this molecule had a DC50 of 1 nM. Consider `Oc1ccc2c(c1)OC[C@H](c1ccc(F)cc1F)[C@@H]2c1ccc(OCCN2CC(CF)C2)nc1` (racemic), for which, in the assay with MCF7 (Homo sapiens, MCF7, 144 h), the concentration for half-maximal inhibition (IC50) was found to be 1.7 nM. `COc1cc(F)ccc1[C@H]1CSc2cc(O)ccc2[C@H]1c1ccc(OCCN2CC(CF)C2)cc1` (racemic): the IC50 was 0.6 nM in the assay on MCF7 (mcf7) and over 40000 nM in assay [1]. `Oc1ccc2c(c1)SC[C@H](c1cc(F)c(F)cc1F)[C@@H]2c1ccc(OCCN2CC(CF)C2)cc1` (racemic): the IC50 with MCF7 (Homo sapiens, MCF7, 144 h) was found to be 0.4 nM. In the case of `CC(=O)N1CCC([C@H]2COc3cc(O)ccc3[C@H]2c2ccc(OCCN3CC(CF)C3)cc2)CC1` (racemic), the IC50 with MCF7 (Homo sapiens, MCF7, 144 h) came out at 9.5 nM. The molecule also yielded a DC50 at Estrogen receptor of 24 nM. On to `COc1cc(F)ccc1[C@H]1CSc2c(ccc3[nH]ncc23)[C@H]1c1ccc(OCCN2CC(CF)C2)cc1` (racemic), for which the IC50 in the assay on MCF7 (Homo sapiens, MCF7, 144 h) stood at 7.4 nM. On Estrogen receptor, this molecule yielded a DC50 of 6.3 nM.

Take `COc1cc(F)ccc1[C@H]1CSc2cc(O)ccc2[C@H]1c1ccc(OCCN2CC(CF)C2)c(F)c1` (racemic): the IC50 in the assay on MCF7 (Homo sapiens, MCF7, 144 h) is 0.7 nM; in assay [1], over 40000 nM.

With `Oc1ccc2c(c1)CCC[C@H](c1ccc(F)cc1F)[C@@H]2c1ccc(OCCN2CC(CF)C2)cc1` (racemic), the IC50 with MCF7 (Homo sapiens, MCF7, 144 h) is 19 nM; in assay [1] it was over 40000 nM. Also, half-maximal degradation at Estrogen receptor (DC50) was put at 22.7 nM. On to `Oc1ccc2c(c1)OC[C@H](c1ccc(F)cc1F)[C@@H]2c1ccc(OCCN2CC(CF)C2)cc1` (racemic), for which the half-maximal inhibitory concentration (IC50) with MCF7 (Homo sapiens, MCF7, 144 h) is 1.2 nM. Regarding `COc1ccc([C@H]2CSc3cc(O)ccc3[C@H]2c2ccc(OCCN3CC(CF)C3)cc2)c(F)c1` (racemic), in the assay with MCF7 (Homo sapiens, MCF7, 144 h), the IC50 was found to be 0.4 nM. The same measure, in the same setting: then `Oc1ccc2c(c1)OC[C@H](c1ccc(Cl)cc1F)[C@@H]2c1ccc(OCCN2CC(CF)C2)cc1` (racemic), with 4.2 nM. `Oc1ccc2c(c1)OC[C@H](c1cc(F)c(F)cc1F)[C@@H]2c1ccc(OCCN2CC(CF)C2)cc1` (racemic): the IC50 in assay [1] is 2800 nM. For the molecule `Oc1ccc2c(c1)OC[C@H](c1ccc(F)cc1F)[C@@H]2c1cc(F)c(OCCN2CC(CF)C2)c(F)c1` (racemic), the IC50 in the assay on MCF7 (Homo sapiens, MCF7, 144 h) was found to be 1.4 nM; in assay [1] it was 1900 nM. As for `Oc1ccc2c(c1)OC[C@H](c1ccc(F)cc1F)[C@@H]2c1ccc(OCCN2CC(CF)C2)c(F)c1` (racemic), the IC50 in assay [1] is 6400 nM.
